Values of other authors in publication PMC7162861, “Synthesis, cytotoxicity, pharmacokinetic profile, binding with DNA and BSA of new imidazo[1,2-a]pyrazine-benzo[d]imidazol-5-yl hybrids” (Scientific Reports, 2020).

System: EtBr-CT-DNA complex
Parameters: method as in printed
Conditions: used in Eq. 4; ref not given; cited from earlier work

Q: Which “known binding constant KEtBr” value does the source give for `CC[n+]1c(-c2ccccc2)c2cc(N)ccc2c2ccc(N)cc21` [ethidium bromide] here?
A: 1e+07 M⁻¹
